Data published in patent US20230173042A1, “METHODS OF TREATMENT WITH ASPARAGINASE” (JAZZ PHARMACEUTICALS IRELAND LTD., priority 2017, published 2023).

Experiments:
AML = test: SynergyScreen of Pegcrisantaspase or Oncaspar with standard of care agents; type: cell-based; conditions: agent combined with Pegcrisantaspase (FIG. 13A) or Oncaspar (FIG. 13B)
Excerpt: (§1) The special volcano plot of FIG. 9 relates compound sensitivity (as measured by ^10logIC50) to the presence of cancer hotspot mutations. […] The hotspot mutations were derived from statistical analyses of the recurrence patterns of mutations and copy number alterations in patients through separate studies. Axes and statistical analyses are identical to the volcano plot of FIG. 8. The cutoff p-level for significance is 0.32. […] Effect20 For determination of the effect of the compound on the activity of other anti-cancer agents in SynergyScreen™ experiments, a low, fixed concentration is used, corresponding to the concentration at which cell growth is inhibited by 20%. This concentration is determined using the dose-response curves of the single compounds. The concentration is the value on the x-as, corresponding to 80% viability of untreated at the y-axis.
(§2) See the tables depicted in FIG. 13A-FIG. 13B. Grey shading indicates synergistic activity. Light grey shading indicates one experiment and dark grey indicates two experiments. […] Example 5: mPEG-r-crisantaspase conjugates (Pegcrisantaspases) was tested in combination with ABT-737 against HL-60 cell line.

DLBCL = test: as above; type: cell-based; conditions: agent combined with Pegcrisantaspase (FIG. 13A) or Oncaspar (FIG. 13B)
Excerpt: as §1, §2

SMILES | effect in AML when used with Pegcrisantaspase or Oncaspar (AML) | effect in DLBCL when used with Pegcrisantaspase or Oncaspar (DLBCL)
COc1cccc2c1C(=O)c1c(O)c3c(c(O)c1C2=O)C[C@@](O)(C(C)=O)C[C@@H]3O[C@H]1C[C@H](N)[C@H](O)[C@H](C)O1 [daunorubicin] | increased effect | –
O=C(Cc1cccc(OC(F)(F)F)c1)Nc1ccc(CCCCc2nnc(NC(=O)Cc3ccccn3)s2)nn1 [CB-839] | – | increased effect
CO[C@H]1C[C@@H]2CC[C@@H](C)[C@@](O)(O2)C(=O)C(=O)N2CCCC[C@H]2C(=O)O[C@H]([C@H](C)C[C@@H]2CC[C@@H](OCCO)[C@H](OC)C2)CC(=O)[C@H](C)/C=C(\C)[C@@H](O)[C@@H](OC)C(=O)[C@H](C)C[C@H](C)/C=C/C=C/C=C/1C [everolimus] | – | increased effect
CC[C@]1(O)C[C@H]2CN(CCc3c([nH]c4ccccc34)[C@@](C(=O)OC)(c3cc4c(cc3OC)N(C=O)[C@H]3[C@@](O)(C(=O)OC)[C@H](OC(C)=O)[C@]5(CC)C=CCN6CC[C@]43[C@@H]65)C2)C1 [vincristine] | – | increased effect
CC(C)C[C@H](NC(=O)[C@H](Cc1ccccc1)NC(=O)c1cnccn1)B(O)O [bortezomib] | increased effect | increased effect
